Values quoted from earlier work as cited in patent publication US20260015582A1, “METHODS OF T CELL DIFFERENTIATION AND COMPOSITIONS THEREOF” (THE CHILDREN'S MEDICAL CENTER CORPORATION, priority 2022, published 2026).

Key:
DIM5 = molecular target: T1, DIM5 (Neurospora crassa, UniProt Q8X225)
T1 sequence (Q8X225 1-331): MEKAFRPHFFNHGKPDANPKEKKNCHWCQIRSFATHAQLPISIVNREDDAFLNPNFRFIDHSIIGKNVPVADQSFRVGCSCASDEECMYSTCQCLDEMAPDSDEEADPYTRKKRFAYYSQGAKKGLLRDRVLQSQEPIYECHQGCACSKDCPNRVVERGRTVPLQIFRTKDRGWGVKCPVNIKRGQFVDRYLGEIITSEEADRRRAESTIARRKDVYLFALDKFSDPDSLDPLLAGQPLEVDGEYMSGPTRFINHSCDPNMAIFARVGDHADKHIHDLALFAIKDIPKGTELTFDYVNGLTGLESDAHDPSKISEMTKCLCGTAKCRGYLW

HMT SU(VAR)3-9 = HMT SU(VAR)3-9 (Drosophila melanogaster, UniProt P45975)
Lys4-specific SET7/9 = molecular target: T2, Lys4-specific SET7/9 (Homo sapiens, UniProt Q8WTS6)
T2 sequence (Q8WTS6 1-366): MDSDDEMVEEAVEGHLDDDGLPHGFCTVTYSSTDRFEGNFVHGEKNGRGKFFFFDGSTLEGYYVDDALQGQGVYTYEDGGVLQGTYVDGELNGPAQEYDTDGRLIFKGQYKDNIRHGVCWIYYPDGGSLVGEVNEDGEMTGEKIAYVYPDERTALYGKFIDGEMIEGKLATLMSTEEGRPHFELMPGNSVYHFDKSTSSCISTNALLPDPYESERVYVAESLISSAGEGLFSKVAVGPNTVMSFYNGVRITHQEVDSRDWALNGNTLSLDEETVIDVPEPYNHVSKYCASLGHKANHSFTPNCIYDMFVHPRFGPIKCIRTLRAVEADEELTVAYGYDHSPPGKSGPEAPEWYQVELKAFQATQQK

JMJD2E = molecular target: T3, JMJD2E (Homo sapiens, UniProt B2RXH2); conditions: ECSD enzymatic assays
T3 sequence (B2RXH2 1-506): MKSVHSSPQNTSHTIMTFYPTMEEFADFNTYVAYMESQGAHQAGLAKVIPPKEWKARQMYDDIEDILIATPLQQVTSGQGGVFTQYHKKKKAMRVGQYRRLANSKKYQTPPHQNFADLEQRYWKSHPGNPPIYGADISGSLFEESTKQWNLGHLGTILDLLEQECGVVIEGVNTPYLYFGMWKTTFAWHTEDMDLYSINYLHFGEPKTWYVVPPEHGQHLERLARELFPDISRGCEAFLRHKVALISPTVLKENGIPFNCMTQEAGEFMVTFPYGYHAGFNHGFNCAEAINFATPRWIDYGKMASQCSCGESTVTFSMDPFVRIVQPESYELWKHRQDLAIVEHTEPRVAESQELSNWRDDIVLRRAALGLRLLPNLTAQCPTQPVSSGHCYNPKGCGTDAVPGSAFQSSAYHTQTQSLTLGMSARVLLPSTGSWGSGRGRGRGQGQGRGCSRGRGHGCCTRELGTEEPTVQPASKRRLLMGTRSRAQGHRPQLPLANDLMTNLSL

[1] = molecular target: T4, class III isoenzyme SIRT1 (Homo sapiens, UniProt Q96EB6)
T4 sequence (Q96EB6 1-747): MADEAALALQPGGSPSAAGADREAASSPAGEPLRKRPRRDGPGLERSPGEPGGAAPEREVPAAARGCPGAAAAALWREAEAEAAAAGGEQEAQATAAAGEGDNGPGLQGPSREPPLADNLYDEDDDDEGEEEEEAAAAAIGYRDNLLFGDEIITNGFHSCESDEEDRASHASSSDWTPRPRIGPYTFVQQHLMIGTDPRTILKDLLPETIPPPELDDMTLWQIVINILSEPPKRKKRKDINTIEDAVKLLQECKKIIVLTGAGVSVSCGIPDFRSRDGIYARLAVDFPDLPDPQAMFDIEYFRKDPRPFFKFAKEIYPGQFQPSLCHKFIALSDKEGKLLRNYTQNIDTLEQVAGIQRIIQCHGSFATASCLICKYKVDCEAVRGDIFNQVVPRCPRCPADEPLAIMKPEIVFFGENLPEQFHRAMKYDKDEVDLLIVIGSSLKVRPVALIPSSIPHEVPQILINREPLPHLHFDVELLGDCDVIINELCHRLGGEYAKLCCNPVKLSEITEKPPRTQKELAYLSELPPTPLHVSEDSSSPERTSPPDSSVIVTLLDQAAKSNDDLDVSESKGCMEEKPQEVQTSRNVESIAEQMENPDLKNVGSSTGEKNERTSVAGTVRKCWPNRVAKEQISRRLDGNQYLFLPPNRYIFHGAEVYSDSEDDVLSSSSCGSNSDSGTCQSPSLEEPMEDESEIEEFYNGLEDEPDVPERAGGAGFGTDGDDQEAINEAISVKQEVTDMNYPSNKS

G9a/GLP = conditions: SAM-competitive manner

Chain of HMT SU(VAR)3-9 (P45975 with tags, fused parts or gaps): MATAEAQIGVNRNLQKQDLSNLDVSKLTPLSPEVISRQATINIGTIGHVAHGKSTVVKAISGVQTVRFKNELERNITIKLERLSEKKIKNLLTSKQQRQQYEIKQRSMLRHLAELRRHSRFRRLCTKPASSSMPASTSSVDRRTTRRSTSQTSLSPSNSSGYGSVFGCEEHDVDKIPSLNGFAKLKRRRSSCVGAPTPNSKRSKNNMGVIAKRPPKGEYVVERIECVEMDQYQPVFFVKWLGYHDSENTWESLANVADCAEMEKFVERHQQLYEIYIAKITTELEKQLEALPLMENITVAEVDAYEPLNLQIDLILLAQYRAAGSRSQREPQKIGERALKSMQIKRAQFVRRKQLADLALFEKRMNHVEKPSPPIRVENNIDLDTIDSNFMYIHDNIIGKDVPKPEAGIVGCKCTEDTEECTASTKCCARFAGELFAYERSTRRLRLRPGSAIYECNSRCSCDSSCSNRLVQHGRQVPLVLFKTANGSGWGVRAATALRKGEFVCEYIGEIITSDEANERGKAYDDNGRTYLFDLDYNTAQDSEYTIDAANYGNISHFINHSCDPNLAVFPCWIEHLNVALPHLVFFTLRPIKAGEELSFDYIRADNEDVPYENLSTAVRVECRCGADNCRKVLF

For `CN1C(=O)C23CC4([C@]56C[C@@]78SS[C@@](CO)(C(=O)N7[C@H]5Nc5ccccc56)N(C)C8=O)c5ccccc5NC4N2C(=O)[C@]1(CO)SS3` (stereo partly shown) [Chaetocin], the IC50 (DIM5) is listed as 3 µM, the IC50 (Lys27-specific EZH2) is listed as > 90 µM and the IC50 (HMT SU(VAR)3-9) is listed as 0.8 µM. For the same molecule, the IC50 (Lys4-specific SET7/9) was > 90 µM, the IC50 (G9a) was 2.5 µM and the IC50 (Lys20-specific PRSET7) was > 90 µM.

In the case of `COc1cc2c(NC3CCN(C)CC3)nc(N3CCCN(C)CC3)nc2cc1OCCOCCN(C)C` [UNC0321], the “selectivity over JMJD2E” value (JMJD2E) is listed as > 1000 fold and the IC50 (JMJD2E; inactive) is listed as > 40 µM.

In the case of `CCCCc1nc2cc(/C=C/C(=O)NO)ccc2n1CCN(CC)CC` [SB939, Pracinostat], the “activity against the class III isoenzyme SIRT1” value [1] is listed as “no activity”.

For `COc1ccc(C(=O)Oc2ccc(CCn3c(NC(=O)c4ccc(C(F)(F)F)cc4)nc4cc(C(=O)O)ccc43)cc2)cc1` [BIX-01338], the G9a/GLP effective conc. (G9a/GLP) is listed as “G9a/GLP effective conc. = 15 μM”.
